Assays:
Assay type in all cases: cell-based
BmOr-1 = molecular target: T1, BmOr-1 (Bombyx mori, UniProt Q5WA61); experiment: two-electrode voltage clamp in Xenopus oocytes, dose-response
T1 construct: with BmOrco
T1 sequence (Q5WA61 1-430): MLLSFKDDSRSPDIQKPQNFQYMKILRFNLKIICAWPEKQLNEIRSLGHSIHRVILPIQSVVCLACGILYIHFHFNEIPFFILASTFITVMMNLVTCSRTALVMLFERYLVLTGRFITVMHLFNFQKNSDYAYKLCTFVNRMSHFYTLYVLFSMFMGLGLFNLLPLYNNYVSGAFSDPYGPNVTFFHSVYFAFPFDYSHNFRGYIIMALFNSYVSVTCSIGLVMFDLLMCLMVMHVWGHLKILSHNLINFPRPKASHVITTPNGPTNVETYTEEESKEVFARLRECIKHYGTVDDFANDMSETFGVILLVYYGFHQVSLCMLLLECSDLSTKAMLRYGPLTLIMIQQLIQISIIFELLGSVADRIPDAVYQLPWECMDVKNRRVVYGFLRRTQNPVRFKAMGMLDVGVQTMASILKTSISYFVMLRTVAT
T1 sequence (Q7YT34 1-472 partner): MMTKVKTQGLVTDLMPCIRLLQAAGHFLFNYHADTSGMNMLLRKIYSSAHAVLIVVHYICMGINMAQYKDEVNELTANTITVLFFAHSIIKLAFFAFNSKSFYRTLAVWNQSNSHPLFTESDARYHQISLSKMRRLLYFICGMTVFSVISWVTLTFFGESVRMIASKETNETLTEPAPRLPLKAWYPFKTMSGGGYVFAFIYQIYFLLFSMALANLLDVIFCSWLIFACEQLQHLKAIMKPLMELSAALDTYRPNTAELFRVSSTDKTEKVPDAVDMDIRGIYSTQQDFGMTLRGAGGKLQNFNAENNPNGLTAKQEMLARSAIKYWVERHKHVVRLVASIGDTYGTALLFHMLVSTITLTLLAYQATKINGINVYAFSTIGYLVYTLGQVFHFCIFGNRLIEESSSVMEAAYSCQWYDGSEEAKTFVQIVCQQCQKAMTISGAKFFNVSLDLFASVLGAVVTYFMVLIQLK

Or47a = molecular target: T2, Or47a (Drosophila melanogaster, UniProt P81921); experiment: two-electrode voltage clamp in Xenopus oocytes, […]
T2 construct: with Orco
T2 sequence (P81921 1-385): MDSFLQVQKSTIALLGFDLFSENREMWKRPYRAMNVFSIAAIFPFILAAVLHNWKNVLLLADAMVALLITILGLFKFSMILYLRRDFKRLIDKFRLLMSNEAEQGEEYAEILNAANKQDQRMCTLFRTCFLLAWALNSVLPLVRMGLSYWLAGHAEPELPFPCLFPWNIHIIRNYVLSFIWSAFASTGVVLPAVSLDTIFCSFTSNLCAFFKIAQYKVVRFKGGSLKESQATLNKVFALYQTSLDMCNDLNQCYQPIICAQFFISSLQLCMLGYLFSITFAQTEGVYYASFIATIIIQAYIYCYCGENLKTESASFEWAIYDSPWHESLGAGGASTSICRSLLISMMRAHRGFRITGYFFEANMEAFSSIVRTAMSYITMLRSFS
T2 sequence (Q9VNB5 1-486 partner): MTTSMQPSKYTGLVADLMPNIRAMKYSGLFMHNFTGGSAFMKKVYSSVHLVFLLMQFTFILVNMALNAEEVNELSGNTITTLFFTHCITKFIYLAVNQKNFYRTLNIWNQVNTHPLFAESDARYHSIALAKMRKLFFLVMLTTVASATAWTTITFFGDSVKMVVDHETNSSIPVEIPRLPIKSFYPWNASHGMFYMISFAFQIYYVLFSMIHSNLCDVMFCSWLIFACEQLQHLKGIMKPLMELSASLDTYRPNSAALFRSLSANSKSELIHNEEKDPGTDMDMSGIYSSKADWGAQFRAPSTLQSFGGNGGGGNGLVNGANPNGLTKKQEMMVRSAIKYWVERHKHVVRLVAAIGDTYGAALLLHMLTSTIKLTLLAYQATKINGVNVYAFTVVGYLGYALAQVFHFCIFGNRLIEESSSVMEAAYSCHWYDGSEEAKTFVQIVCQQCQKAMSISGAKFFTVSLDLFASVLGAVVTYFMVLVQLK

AgOr2 = molecular target: T3, AgOr2 (Anopheles gambiae, UniProt Q8WTE6); experiment: two-electrode voltage clamp in Xenopus oocytes, […]
T3 construct: gene OR2; with AgOrco
T3 sequence (Q8WTE6 whole entry): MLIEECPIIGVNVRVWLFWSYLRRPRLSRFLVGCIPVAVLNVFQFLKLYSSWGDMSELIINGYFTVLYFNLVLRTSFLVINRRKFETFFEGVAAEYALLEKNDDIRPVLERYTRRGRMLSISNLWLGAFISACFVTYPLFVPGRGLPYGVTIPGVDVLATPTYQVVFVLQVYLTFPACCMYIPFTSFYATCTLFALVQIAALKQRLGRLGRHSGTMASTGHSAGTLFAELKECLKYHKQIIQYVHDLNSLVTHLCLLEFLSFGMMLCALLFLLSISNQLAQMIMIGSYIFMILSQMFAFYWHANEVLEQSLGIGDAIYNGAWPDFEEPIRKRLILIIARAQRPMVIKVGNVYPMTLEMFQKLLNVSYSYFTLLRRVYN

## CCC/C=C\C=C\CCCCCCCCCO [bombykol]
BmOr-1
  EC50: 8.2 µM

## CCCCCOC(C)=O [pentylacetate]
Or47a
  two-electrode voltage clamp in Xenopus oocytes, 100 μM: oocytes expressing various insect Or-Orco complex in response to their cognate ligands and cyclic nucleotide reagents

## Cc1ccccc1O [2-methylphenol]
AgOr2
  two-electrode voltage clamp in Xenopus oocytes, 100 μM: oocytes expressing various insect Or-Orco complex in response to their cognate ligands and cyclic nucleotide reagents
